In US20210353658A1, “COMPOSITION AND METHOD OF INHIBITING CORTISONE REDUCTASE” (Amorepacific Corporation, priority 2018, published 2021):

Key:
[1] = test system: keratinocyte differentiation markers of KRT1 and KRT10; test: RT-qPCR (TAQMAN real-time PCR) gene expression of keratinocyte differentiation markers in UVB-irradiated NHEK; format: cell-based, human; conditions: compound 10 μg/ml
Protocol: (§1) Normal human epidermal keratinocytes (NHEK) were cultured in a 6-well plate incubator. Specifically, the normal human epidermal keratinocytes (NHEK) were cultured for 4 days by replacing it with phosphate-buffered saline (PBS) after 24 hours to irradiate UVB (25 mJ/cm^2) and adding cortisone (10 μg/ml) and a compound represented by Chemical Formula 1-1 (glucocerebrosides (soy, 98%), Avanti Polar Lipids, Inc.) to NHEK culture media.
In addition, the normal human epidermal keratinocytes (NHEK) were treated with TRIZOL to separate RNA, which was used to synthesize cDNA through RT-PCR (reverse transcriptional polymerase chain reaction). The synthesized cDNA was used to perform TAQMAN® real-time PCR and measure gene expression amounts of keratinocyte differentiation markers of KRT1 and KRT10, and the results are shown in FIGS. 2 and 3. Referring to FIGS. 2 and 3, in the well to which the compound represented by Chemical Formula 1 (10 μg/ml) was added, the gene expression of the keratinocyte differentiation markers (KRT10, KRT1) inhibited by ultraviolet (UVB) rays in the keratinocytes was increased. […]

[2] = target: T1, 11β-hydroxysteroid dehydrogenase type 1 (Homo sapiens, UniProt P28845); test: Cortisone reductase activity inhibition: cortisol concentration in the culture solution of UVB-irradiated, cortisone-treated NHEK, by ELISA; format: cell-based; conditions: UVB 25 mJ/cm^2, cortisone 10 μg/ml, compound 10 μg/ml, cultured 4 days, ELISA (FIG. 1)
T1 construct: endogenous in cells; host or cells: normal human epidermal keratinocytes (NHEK), UVB-irradiated
Protocol: as §1
Subsequently, the cell culture solution was collected to measure a cortisol concentration in an ELISA method, and the results are shown in FIG. 1. […] Accordingly, a composition including the compound represented by Chemical Formula 1-1 as an active ingredient according to an embodiment turned out to inhibit activity of 11β-hydroxysteroid dehydrogenase type 1 that is cortisone reductase.

T1 sequence (P28845 whole entry): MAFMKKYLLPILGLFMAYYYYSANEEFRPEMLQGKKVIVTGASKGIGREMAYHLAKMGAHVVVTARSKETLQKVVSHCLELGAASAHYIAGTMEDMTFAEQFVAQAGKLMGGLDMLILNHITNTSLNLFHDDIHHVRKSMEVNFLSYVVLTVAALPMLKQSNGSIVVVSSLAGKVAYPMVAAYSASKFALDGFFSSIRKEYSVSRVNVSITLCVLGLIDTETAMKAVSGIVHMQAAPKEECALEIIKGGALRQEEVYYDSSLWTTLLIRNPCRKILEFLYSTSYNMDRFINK

CCCCCCCCC/C=C/CC/C=C/[C@@H](O)[C@H](CO[C@@H]1OC(CO)[C@H](O)C(O)C1O)NC(=O)C(O)CCCCCCCCCCCCCC (stereo partly drawn) [Chemical Formula 1-1, glucocerebrosides (soy, 98%)]
gene expression of keratinocyte differentiation marker KRT10 inhibited by UVB ([1]; RT-qPCR (FIG. 2)): increased | gene expression of keratinocyte differentiation marker KRT1 inhibited by UVB ([1]; RT-qPCR (FIG. 3)): increased | cortisol concentration in cell culture solution [2]: greatly did not increase
